Columns and labels:
ATR kinase = molecular target: T1, ATR kinase (Homo sapiens, UniProt Q13535); assay: ATR inhibition assay (mobility shift assay, FAM-RAD17 phosphorylation); type: biochemical; conditions: substrate FAM-RAD17, ATR kinase (Eurofins)
T1 construct: purchased Eurofins 14-953
Procedure: Assay 1: ATR Inhibition Assay
The assay was developed and conducted at Chempartner. All the test compounds were dissolved in 100% DMSO at concentration of 20 mM, then prepare compounds and conducted the assay as follows:
1) Transfer 80 µl20 mM compound to 40 µl of 100% DMSO in a 96-well plate.
2) Serially dilute the compound by transferring 20 µl to 60 µl of 100% DMSO in the next well and so forth for a total of 10 concentrations.
3) Add 100 µl of 100% DMSO to two empty wells for no compound control and no enzyme control in the same 96-well plate. Mark the plate as source plate.
4) Transfer 40 µl of compound from source plate to a new 384-well plate as the intermediate plate.
5) Transfer 60 nl compounds to assay plate by Echo.
No. D14JP007N) into Kinase base buffer (50 mM HEPES, pH 7.5; 0.0015% Brij-35; 0.01% Triton) to prepare 2x enzyme solution, then add 10 µl of 2x enzyme solution to each well of the 384-well assay plate, incubate at room temperature for 10 min.
8) Incubate at 28° C. for specified period of time. Add 40 µl of stop buffer (100 mM HEPES, pH 7.5; 0.015% Brij-35; 0.2% Coating Reagent #3; 50 mM EDTA) to stop reaction.
9) Collect data on Caliper. Convert conversion values to inhibition values.
wherein “max” stands for DMSO control; “min” stands for low control.
Fit the data in XLFit excel add-in version 5.4.0.8 to obtain IC50 values. Equation used is: […]
wherein X means concentration in a format not transformed to logarithms.

[1] = tested on: LoVo (CCL-229) human colorectal cancer cells; assay: Tumor cell anti-proliferation assay (CTG assay); type: cell-based; conditions: 96 h incubation, CellTiter-Glo, IC50 (Y=50%)
From the text: Assay 2: Tumor Cell Anti-proliferation Assay (CTG Assay)
Human colorectal cancer cells HT-29 (HTB-38) and LoVo (CCL-229) were selected for the CTG assay, the two cell lines were originally obtained from the American Type Culture Collection (ATCC). Add FBS and appropriate additives into base medium to prepare complete medium, then briefly rinse the cell layer with 0.25% (w/v) Trypsin-0.038% (w/v) EDTA solution to remove all traces of serum that contains trypsin inhibitor, after that, add appropriate volume of Trypsin-EDTA solution to flask and observe cells under an inverted microscope until cell layer is dispersed, at last, add appropriate volume of complete growth medium and aspirate cells by gently pipetting. Collect and count numbers with Vi-cell XR and adjust cell density, seed cells into 96-well opaque-walled clear bottom tissue-culture treated plates in the CO2 incubator for 20-24 hours. All the test compounds will be at 10 mM in DMSO. Compounds are then added to the cell media in 3-fold serial dilutions, the final DMSO concentration is 0.5%. Incubate plates for 96 h at 5% CO2, 37° C. Before the measurement, transfer the appropriate volume of CellTiter-Glo Buffer into the amber bottle containing CellTiter-Glo substrate to reconstitute the lyophilized enzyme/substrate mixture, mix gently, this forms the CellTiter-Glo Reagent (Promega Cat. No. G7573). Equilibrate the plate and its contents to room temperature for approximately 30 minutes, then add 100 µL of CellTiter-Glo Reagent to the assay plate, mix contents for 2 minutes on an orbital shaker to induce cell lysis, incubate at room temperature for 10 minutes to stabilize luminescent signal, at last paste the clear bottom with white back seal and record luminescence with Enspire. IC50 and GI50 values were calculated with XLFit curve fitting software using 4 Parameter Logistic Model Y=Bottom + (Top-Bottom)/(1+(IC50/X)^HillSlope).
The following Table 3 provides the IC50 (Y=50%) values for exemplary compounds of Formula (I).

T1 sequence (Q13535 whole entry): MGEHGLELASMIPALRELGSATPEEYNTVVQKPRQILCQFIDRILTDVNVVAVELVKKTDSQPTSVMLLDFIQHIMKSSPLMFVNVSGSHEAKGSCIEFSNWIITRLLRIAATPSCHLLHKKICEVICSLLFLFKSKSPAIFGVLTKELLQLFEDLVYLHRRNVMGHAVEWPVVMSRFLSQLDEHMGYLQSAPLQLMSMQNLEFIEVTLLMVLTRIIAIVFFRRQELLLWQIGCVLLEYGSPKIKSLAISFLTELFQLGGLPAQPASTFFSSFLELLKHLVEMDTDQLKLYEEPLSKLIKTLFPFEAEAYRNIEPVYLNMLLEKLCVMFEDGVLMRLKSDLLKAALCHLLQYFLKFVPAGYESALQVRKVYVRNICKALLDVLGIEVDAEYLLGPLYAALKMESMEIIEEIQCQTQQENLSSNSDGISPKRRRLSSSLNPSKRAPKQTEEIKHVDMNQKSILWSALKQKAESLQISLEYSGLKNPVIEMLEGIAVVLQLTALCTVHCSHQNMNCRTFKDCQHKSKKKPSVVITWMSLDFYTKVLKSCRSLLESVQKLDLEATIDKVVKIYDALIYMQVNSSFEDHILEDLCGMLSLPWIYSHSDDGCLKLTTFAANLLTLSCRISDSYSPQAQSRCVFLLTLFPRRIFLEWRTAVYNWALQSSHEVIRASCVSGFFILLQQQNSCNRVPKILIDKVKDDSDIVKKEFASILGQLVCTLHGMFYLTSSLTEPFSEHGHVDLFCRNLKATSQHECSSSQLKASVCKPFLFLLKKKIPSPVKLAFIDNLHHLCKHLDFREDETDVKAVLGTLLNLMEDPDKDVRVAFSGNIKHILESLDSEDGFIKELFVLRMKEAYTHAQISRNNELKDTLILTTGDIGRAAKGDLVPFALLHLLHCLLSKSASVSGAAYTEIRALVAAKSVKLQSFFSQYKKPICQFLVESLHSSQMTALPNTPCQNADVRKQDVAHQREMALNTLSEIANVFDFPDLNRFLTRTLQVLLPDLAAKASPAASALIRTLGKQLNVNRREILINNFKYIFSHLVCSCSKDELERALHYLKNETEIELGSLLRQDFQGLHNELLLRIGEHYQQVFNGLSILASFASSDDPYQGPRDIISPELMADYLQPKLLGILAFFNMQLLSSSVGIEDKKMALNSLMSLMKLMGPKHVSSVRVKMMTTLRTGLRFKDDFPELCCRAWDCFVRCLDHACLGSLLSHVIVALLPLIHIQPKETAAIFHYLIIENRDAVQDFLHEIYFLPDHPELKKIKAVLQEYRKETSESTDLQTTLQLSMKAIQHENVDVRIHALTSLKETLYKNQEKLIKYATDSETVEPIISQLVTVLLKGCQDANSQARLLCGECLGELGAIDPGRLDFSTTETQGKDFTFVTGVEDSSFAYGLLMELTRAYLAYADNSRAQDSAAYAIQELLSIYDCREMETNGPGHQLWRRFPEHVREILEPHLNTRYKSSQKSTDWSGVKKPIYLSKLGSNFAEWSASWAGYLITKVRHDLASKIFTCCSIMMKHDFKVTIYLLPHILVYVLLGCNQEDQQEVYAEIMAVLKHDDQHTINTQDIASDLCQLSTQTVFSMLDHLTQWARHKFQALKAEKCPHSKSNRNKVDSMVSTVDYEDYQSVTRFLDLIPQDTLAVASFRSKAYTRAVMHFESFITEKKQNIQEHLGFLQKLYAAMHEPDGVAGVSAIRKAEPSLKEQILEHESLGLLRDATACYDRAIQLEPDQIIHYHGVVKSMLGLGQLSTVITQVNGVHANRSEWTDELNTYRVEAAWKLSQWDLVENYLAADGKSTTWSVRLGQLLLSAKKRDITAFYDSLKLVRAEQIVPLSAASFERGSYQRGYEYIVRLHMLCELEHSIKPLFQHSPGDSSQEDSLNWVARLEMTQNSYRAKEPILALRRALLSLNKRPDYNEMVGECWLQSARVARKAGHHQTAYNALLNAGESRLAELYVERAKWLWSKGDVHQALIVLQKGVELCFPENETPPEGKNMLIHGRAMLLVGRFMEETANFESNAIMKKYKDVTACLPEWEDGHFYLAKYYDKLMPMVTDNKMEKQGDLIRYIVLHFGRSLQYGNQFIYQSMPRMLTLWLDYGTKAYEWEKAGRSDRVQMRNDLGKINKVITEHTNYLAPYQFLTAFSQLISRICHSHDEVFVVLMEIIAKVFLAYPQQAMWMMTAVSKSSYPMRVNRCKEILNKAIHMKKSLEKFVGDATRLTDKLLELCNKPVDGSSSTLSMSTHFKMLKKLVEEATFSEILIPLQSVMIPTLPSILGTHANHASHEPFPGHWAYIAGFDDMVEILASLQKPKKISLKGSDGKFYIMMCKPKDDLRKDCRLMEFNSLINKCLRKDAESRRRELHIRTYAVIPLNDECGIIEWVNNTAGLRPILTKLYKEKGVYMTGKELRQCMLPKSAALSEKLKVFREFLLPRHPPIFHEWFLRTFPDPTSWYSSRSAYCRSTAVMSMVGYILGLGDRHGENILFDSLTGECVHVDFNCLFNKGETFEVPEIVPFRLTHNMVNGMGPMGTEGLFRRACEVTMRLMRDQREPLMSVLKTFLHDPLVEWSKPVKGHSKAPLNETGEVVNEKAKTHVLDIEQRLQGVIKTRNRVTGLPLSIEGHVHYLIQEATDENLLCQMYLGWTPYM
T1 sequence (Q8WXE1 whole entry partner): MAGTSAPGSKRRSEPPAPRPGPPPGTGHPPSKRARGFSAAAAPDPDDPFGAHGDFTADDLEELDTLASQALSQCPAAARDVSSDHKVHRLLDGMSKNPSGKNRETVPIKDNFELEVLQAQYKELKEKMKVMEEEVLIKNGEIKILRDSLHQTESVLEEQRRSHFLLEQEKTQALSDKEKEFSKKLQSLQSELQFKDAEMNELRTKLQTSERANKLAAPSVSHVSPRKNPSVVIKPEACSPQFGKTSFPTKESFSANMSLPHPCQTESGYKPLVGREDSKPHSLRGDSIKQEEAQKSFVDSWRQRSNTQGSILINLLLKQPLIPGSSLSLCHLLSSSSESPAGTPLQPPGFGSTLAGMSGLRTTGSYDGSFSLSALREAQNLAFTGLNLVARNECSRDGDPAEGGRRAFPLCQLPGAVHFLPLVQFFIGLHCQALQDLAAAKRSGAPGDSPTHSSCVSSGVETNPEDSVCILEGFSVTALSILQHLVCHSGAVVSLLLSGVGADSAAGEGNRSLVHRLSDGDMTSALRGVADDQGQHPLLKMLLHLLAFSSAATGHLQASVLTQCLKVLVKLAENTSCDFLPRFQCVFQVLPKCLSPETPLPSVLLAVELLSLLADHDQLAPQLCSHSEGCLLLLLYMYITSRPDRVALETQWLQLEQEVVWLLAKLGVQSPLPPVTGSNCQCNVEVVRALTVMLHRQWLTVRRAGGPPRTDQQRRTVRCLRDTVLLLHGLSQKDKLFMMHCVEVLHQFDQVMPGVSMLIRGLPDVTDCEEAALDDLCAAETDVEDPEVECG

SMILES | IC50 (ATR kinase) | IC50 [1]
C[C@@H]1COCCN1c1cc(C(C)(C)C#N)cc(Nc2ccn[nH]2)n1 [Compound 24, (R)-2-(2-((1H-pyrazol-5-yl)amino)-6-(3-methylmorpholino)pyridin-4-yl)-2-methylpropanenitrile] | 17 nM | 428 nM
Cc1cc(Nc2cc(C(C)(C)C#N)cc(N3CCOC[C@H]3C)n2)[nH]n1 [Compound 25, 2-methyl-2-{2-[(3-methyl-1H-pyrazol-5-yl)amino]-6-[(3R)-3-methylmorpholin-4-yl]pyridin-4-yl}propanenitrile] | 11.8 nM | 309 nM
C[C@@H]1COCCN1c1cc(C(C)(C)S(C)(=O)=O)cc(Nc2ccn[nH]2)n1 [Compound 26, (R)-6-(3-methylmorpholino)-4-(2-(methylsulfonyl)propan-2-yl)-N-(1H-pyrazol-5-yl)pyridin-2-amine] | 22 nM | 517 nM
Cc1cc(Nc2cc(C(C)(C)S(C)(=O)=O)cc(N3CCOC[C@H]3C)n2)[nH]n1 [Compound 27, 4-(2-methanesulfonylpropan-2-yl)-N-(3-methyl-1H-pyrazol-5-yl)-6-[(3R)-3-methylmorpholin-4-yl]pyridin-2-amine] | 15.7 nM | 564 nM
C[C@@H]1COCCN1c1cc(C(C)(C)C#N)nc(Nc2ccn[nH]2)n1 [Compound 28, (R)-2-(2-((1H-pyrazol-5-yl)amino)-6-(3-methylmorpholino)pyrimidin-4-yl)-2-methylpropanenitrile] | 30.4 nM | 406 nM
Cc1cc(Nc2cc(C3(C#N)CC3)cc(N3CCOC[C@H]3C)n2)[nH]n1 [Compound 35, 1-{2-[(3-methyl-1H-pyrazol-5-yl)amino]-6-[(3R)-3-methylmorpholin-4-yl]pyridin-4-yl}cyclopropane-1-carbonitrile] | 33.3 nM | 718 nM
C[C@@H]1COCCN1c1cc(C2(C#N)CCCCC2)cc(Nc2ccn[nH]2)n1 [Compound 38, 1-{2-[(3R)-3-methylmorpholin-4-yl]-6-[(1H-pyrazol-5-yl)amino]pyridin-4-yl} cyclohexane-1-carbonitrile] | 12.3 nM | 492 nM
C[C@@H]1COCCN1c1cc(C2(C#N)CCCCC2)nc(Nc2ccn[nH]2)n1 [Compound 41, (R)-1-(2-((1H-pyrazol-5-yl)amino)-6-(3-methylmorpholino)pyrimidin-4-yl)cyclohexane-1-carbonitrile] | 2.5 nM | 370 nM
C[C@@H]1COCCN1c1cc(C2(C#N)CCOCC2)nc(Nc2ccn[nH]2)n1 [Compound 42, (R)-4-(2-((1H-pyrazol-5-yl)amino)-6-(3-methylmorpholino)pyrimidin-4-yl) tetrahydro-2H-pyran-4-carbonitrile] | 19.7 nM | 640 nM
C[C@@H]1COCCN1c1cc(C2(O)CCCCC2)cc(Nc2ccn[nH]2)n1 [Compound 43, (R)-1-(2-((1H-pyrazol-5-yl)amino)-6-(3-methylmorpholino)pyridin-4-yl) cyclohexan-1-ol] | 52.7 nM | 653 nM

From patent US20230339927A1, “ATR INHIBITORS AND USES THEREOF” (ANTENGENE DISCOVERY LIMITED, priority 2020, published 2023)
